Broadly, the IC50 is the concentration that gives 50% inhibition.

The results in this text go back to US10781185B2, “Heterocyclic compounds for the inhibition of PASK” (BioEnergenix LLC, priority 2009, dated 2020).

In the experiment the target is PASK (Homo sapiens (Human), UniProt Q96RG2). Briefly: PAS Kinase FRET Assay. It is filed as biochemical. To be noted: TR-FRET, Ulight-peptide substrate; read-out: IC50 Kinase Domain. An excerpt: PAS Kinase FRET Assay The aim of the FRET assay is to determine the inhibition potential of test compounds on targeted kinase. This assay platform provides a homogenous screening method for measuring kinase activity by quantitating the amount of phospho-substrate in solution following a kinase reaction. In the presence of kinase and ATP, the Ulight-peptide is phosphorylated and captured by an anti-phospho-substrate antibody, which brings the Eu chelate donor and Ulight acceptor dyes into close proximity. […] The contents of the plate were and incubated at RT for 1 h. The reaction was stopped by adding 5 μl of stop solution to each test well followed by mixing and incubation at RT for 10 minutes. 5 μl of detection mix (detection antibody diluted in detection buffer) was added; the contents of the plate were mixed and then incubated in the dark for 1 hour at RT. […] The results were graphed to calculate the EC50. Titration of ATP at the EC50 concentration of kinase to determine ATP Km,app. was performed using the following method. […] The contents of the plate were and incubated at RT for 1 h. The reaction was stopped by adding 5 μl of stop solution to each test well followed by mixing and incubation at RT for 10 minutes. 5 μl of detection mix (detection antibody diluted in detection buffer) was added; the contents of the plate were mixed and then incubated in the dark for 1 hour at RT. […] The results were graphed to calculate the EC50 as the ATP Km,app. […] If compound is not soluble under this condition, it was diluted to 3 mM. Kinase reaction buffer was prepared containing 10 mM MgCl2, 50 mM HEPES, 1 mM EGTA, 0.01% TWEEN-20, 2 mM DTT. […] As a positive control, 2.5 μl of positive compound was added to assay wells, and 2.5 μl of DMSO to assay wells as vehicle control. Kinase solution was prepared in reaction buffer at 2× final assay concentration. Kinase solution (5 μl) was added to each well of the assay plate. The substrate and ATP solution was prepared in kinase reaction buffer at 4× final assay concentration. The kinase reaction was started by adding 2.5 μl of substrate+ATP mix solution to each well of the assay plate. The plate is mixed on a plate shaker; then covered and allowed to react for 2 hours in the dark at 25° C. without shaking. The reaction was stopped by adding 5 μl of stop solution to each test well followed by mixing and incubation at RT for 10 minutes in the dark. 5 μl of detection mix (detection antibody diluted in detection buffer) was added; the contents of the plate were mixed and then incubated in the dark for 1 hour at RT.
Chain of PASK (Q96RG2 999-1251): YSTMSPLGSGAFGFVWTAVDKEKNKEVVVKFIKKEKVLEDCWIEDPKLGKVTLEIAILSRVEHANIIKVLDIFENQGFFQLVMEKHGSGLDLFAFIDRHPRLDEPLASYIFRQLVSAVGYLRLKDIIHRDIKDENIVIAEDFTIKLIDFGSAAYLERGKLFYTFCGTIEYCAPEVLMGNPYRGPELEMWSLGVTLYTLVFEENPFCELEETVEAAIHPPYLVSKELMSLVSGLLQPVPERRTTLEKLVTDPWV
(In general: TR-FRET usually uses a lanthanide donor and a delayed reading to cut background.)
Turning to `CC[C@@H](C)N(C)c1nc2cc(C(=O)O)ccc2nc1-c1ccccc1` [Example 61, (R)-3-(sec-Butyl(methyl)amino)-2-phenylquinoxaline-6-carboxylic acid], the IC50 was ≤ 10 µM.

In the case of `CC(C)N(C)c1nc2cc(C(=O)O)ccc2nc1-c1cccs1` [Example 108, 3-(Isopropyl(methyl)amino)-2-(thiophen-2-yl)quinoxaline-6-carboxylic acid], the IC50 is ≤ 10 µM.

Regarding `C[C@H](c1ccccc1)N(C)c1nc2cc(C(=O)O)ccc2nc1-c1ccccc1` [Example 59, (R)-3-(Methyl(1-phenylethyl)amino)-2-phenylquinoxaline-6-carboxylic acid], the IC50 was ≤ 10 µM.

Consider `O=C(O)c1ccc2nc(-c3ccccc3)c(N3CCc4ccccc4C3)nc2c1` [Example 39, 3-(3,4-Dihydroisoquinolin-2(1H)-yl)-2-phenylquinoxaline-6-carboxylic acid], for which the IC50 was ≤ 10 µM.

For `CCC(C)N(C)c1nc2cc(C(=O)O)ccc2nc1-c1ccccc1` (centres unmarked) [Example 48, 3-(sec-Butyl(methyl)amino)-2-phenylquinoxaline-6-carboxylic acid], the IC50 was ≤ 10 µM.

As to `CC(=O)N(C)C1CCN(c2nc3cc(C(=O)O)ccc3nc2-c2ccccc2)CC1` [Example 34, 3-(4-(N-Methylacetamido)piperidin-1-yl)-2-phenylquinoxaline-6-carboxylic acid], the IC50 is ≤ 10 µM.

Regarding `O=C(O)c1ccc2nc(-c3ccccc3)c(N3CCC[C@H]3CO)nc2c1` [Example 53, (S)-3-(2-(Hydroxymethyl)pyrrolidin-1-yl)-2-phenylquinoxaline-6-carboxylic acid], the IC50 was ≤ 10 µM.

Take `CC(=O)N(C)C1CCN(c2nc3cc(C(=O)O)ccc3nc2-c2ccc(F)cc2)CC1` [Example 111, 2-(4-Fluorophenyl)-3-(4-(N-methylacetamido)piperidin-1-yl)quinoxaline-6-carboxylic acid]: the IC50 is ≤ 10 µM.

As for `CC(C)N(C)c1nc2cc(C(=O)O)ccc2nc1-c1ccc(N2CCOCC2)cc1` [Example 100, 3-(Isopropyl(methyl)amino)-2-(4-morpholinophenyl)quinoxaline-6-carboxylic acid], the IC50 is ≤ 10 µM.

As for `O=C(O)c1ccc2nc(-c3ccccc3)c(N3CCc4ccccc43)nc2c1` [Example 67, 3-(Indolin-1-yl)-2-phenylquinoxaline-6-carboxylic acid], the IC50 is ≤ 10 µM.

Turning to `C[C@H]1CN(c2ccccn2)CCN1c1nc2cc(C(=O)O)ccc2nc1-c1ccc(F)cc1` [Example 90, (S)-2-(4-Fluorophenyl)-3-(2-methyl-4-(pyridin-2-yl)piperazin-1-yl)quinoxaline-6-carboxylic acid], the IC50 was ≤ 10 µM.

On to `C[C@@H](c1ccccc1)N(C)c1nc2cc(C(=O)O)ccc2nc1-c1ccccc1` [Example 60, (S)-3-(Methyl(1-phenylethyl)amino)-2-phenylquinoxaline-6-carboxylic acid], for which the IC50 was ≤ 10 µM.

Regarding `CC(C)N(C)c1nc2cc(C(=O)O)ccc2nc1-c1ccc(S(C)(=O)=O)cc1` [Example 82, 3-(Isopropyl(methyl)amino)-2-(4-(methylsulfonyl)phenyl)quinoxaline-6-carboxylic acid], the IC50 is ≥ 10 µM.

Consider `O=C1CN(c2nc3cc(C(=O)O)ccc3nc2-c2ccc(F)cc2)CCN1` [Example 103, 2-(4-Fluorophenyl)-3-(3-oxopiperazin-1-yl)quinoxaline-6-carboxylic acid], for which the IC50 was ≤ 10 µM.

On to `CN(c1ccccc1)C1CCN(c2nc3cc(C(=O)O)ccc3nc2-c2ccccc2)CC1` [Example 35, 3-(4-(Methyl(phenyl)amino)piperidin-1-yl)-2-phenylquinoxaline-6-carboxylic acid], for which the IC50 is ≤ 10 µM.

As for `CC(C)N(C)c1nc2cc(C(=O)O)ccc2nc1-c1ccco1` [Example 98, 2-(Furan-2-yl)-3-(isopropyl(methyl)amino)quinoxaline-6-carboxylic acid], the IC50 is ≤ 10 µM.

In the case of `O=C(O)c1ccc2nc(-c3ccccc3)c(NCCc3ccccc3)nc2c1` [Example 41, 3-(Phenethylamino)-2-phenylquinoxaline-6-carboxylic acid], the IC50 is ≤ 10 µM.

Consider `CC(C)N(C)c1nc2cc(C(=O)O)ccc2nc1-c1ccc(C#N)cc1` [Example 86, 2-(4-Cyanophenyl)-3-(isopropyl(methyl)amino)quinoxaline-6-carboxylic acid], for which the IC50 was ≤ 10 µM.

Turning to `O=C(O)c1ccc2nc(-c3ccccc3)c(N3CCOc4ccccc43)nc2c1` [Example 68, 3-(2,3-Dihydrobenzo[b][1,4]oxazin-4-yl)-2-phenylquinoxaline-6-carboxylic acid], the IC50 is ≤ 10 µM.

For `O=C(O)c1ccc2nc(-c3ccccc3)c(N3CCS(=O)(=O)CC3)nc2c1` [Example 102, 3-(1,1-Dioxidothiomorpholino)-2-phenylquinoxaline-6-carboxylic acid], the IC50 is ≥ 10 µM.

In the case of `Cc1ccc(-c2nc3ccc(C(=O)O)cc3nc2N(C)C(C)C)s1` [Example 107, 3-(Isopropyl(methyl)amino)-2-(5-methylthiophen-2-yl)quinoxaline-6-carboxylic acid], the IC50 is ≤ 10 µM.

With `O=C(O)c1ccc2nc(-c3ccccc3)c(NC3CCCCC3)nc2c1` [Example 44, 3-(Cyclohexylamino)-2-phenylquinoxaline-6-carboxylic acid], the IC50 is ≤ 10 µM.

With `O=C(O)c1ccc2nc(-c3ccccc3)c(N3CC[C@@H](O)C3)nc2c1` [Example 49, (R)-3-(3-Hydroxypyrrolidin-1-yl)-2-phenylquinoxaline-6-carboxylic acid], the IC50 was ≤ 10 µM.

Regarding `O=C(O)c1ccc2nc(-c3ccc(F)cc3)c(N3CCS(=O)(=O)CC3)nc2c1` [Example 101, 3-(1,1-Dioxidothiomorpholino)-2-(4-fluorophenyl)quinoxaline-6-carboxylic acid], the IC50 was ≥ 10 µM.

Turning to `CN(c1nc2cc(C(=O)O)ccc2nc1-c1ccc(F)cc1)C1CCOCC1` [Example 105, 2-(4-Fluorophenyl)-3-(methyl(tetrahydro-2H-pyran-4-yl)amino)quinoxaline-6-carboxylic acid], the IC50 is ≤ 10 µM.

For `CCN(CC)c1nc2cc(C(=O)O)ccc2nc1-c1ccccc1` [Example 36, 3-(Diethylamino)-2-phenylquinoxaline-6-carboxylic acid], the IC50 was ≤ 10 µM.

`CC(=O)NC1CCN(c2nc3cc(C(=O)O)ccc3nc2-c2ccccc2)CC1` [Example 37, 3-(4-Acetamidopiperidin-1-yl)-2-phenylquinoxaline-6-carboxylic acid]: the IC50 was ≤ 10 µM.

Regarding `CC(C)N(C)c1nc2cc(C(=O)O)ccc2nc1-c1ccc(OC(F)(F)F)cc1` [Example 85, 3-(Isopropyl(methyl)amino)-2-(4-(trifluoromethoxy)phenyl)quinoxaline-6-carboxylic acid], the IC50 was ≤ 10 µM.

As to `O=C(O)c1ccc2nc(-c3ccccc3)c(N3CC[C@H](O)C3)nc2c1` [Example 50, (S)-3-(3-Hydroxypyrrolidin-1-yl)-2-phenylquinoxaline-6-carboxylic acid], the IC50 is ≤ 10 µM.

For `COc1cccc(-c2nc3ccc(C(=O)O)cc3nc2N(C)C(C)C)c1` [Example 69, 3-(Isopropyl(methyl)amino)-2-(3-methoxyphenyl)quinoxaline-6-carboxylic acid], the half-maximal inhibitory concentration (IC50) was ≤ 10 µM.

Take `O=C(O)c1ccc2nc(-c3ccccc3)c(N3CCCC4CCCCC43)nc2c1` (centres unmarked) [Example 96, 3-(Octahydroquinolin-1(2H)-yl)-2-phenylquinoxaline-6-carboxylic acid]: the IC50 was ≤ 10 µM.

For `CS(=O)(=O)N1CCN(c2nc3cc(C(=O)O)ccc3nc2-c2ccccc2)CC1` [Example 33, 3-(4-(Methylsulfonyl)piperazin-1-yl)-2-phenylquinoxaline-6-carboxylic acid], the IC50 is ≤ 10 µM.

Regarding `CC(C)N(C)c1nc2cc(C(=O)O)ccc2nc1-c1ccccc1F` [Example 71, 2-(2-Fluorophenyl)-3-(isopropyl(methyl)amino)quinoxaline-6-carboxylic acid], the concentration for half-maximal inhibition (IC50) was ≤ 10 µM.

As for `CC(C)N(C)c1nc2cc(C(=O)O)ccc2nc1-c1cccc(F)c1` [Example 70, 2-(3-Fluorophenyl)-3-(isopropyl(methyl)amino)quinoxaline-6-carboxylic acid], the IC50 was ≤ 10 µM.

On to `C[C@H]1CN(c2ccccn2)CCN1c1nc2cc(C(=O)O)ccc2nc1-c1ccccc1` [Example 94, (S)-3-(2-Methyl-4-(pyridin-2-yl)piperazin-1-yl)-2-phenylquinoxaline-6-carboxylic acid], for which the IC50 is ≤ 10 µM.
